Measured values from patent US5039797A, “2'-O-(4-benzoyl)benzoyl nucleoside cyclic monophosphate” (Yale University, priority 1989, dated 1991).
Like-named read-outs stand apart in the source and are kept apart here. Values belong to the molecule of their own block, whether it stands above or below them.

Columns and labels:
[1] = system: platelet phosphodiesterase; assay: Inhibition of platelet phosphodiesterase activity (H3-cAMP hydrolysis); format: biochemical; conditions: 5 minutes at 30° C, platelet preparations
Procedure: The IC50 's for 2'-0-(4-benzoyl)benzoyl guanosine 3',5'cyclic monophosphate and 2'-0-(4-benzoyl)benzoyl cyclic adenosine monophosphate were 3 and 10 μM, repsectively. Enzyme activity was assayed by incubation of platelet preparations with H^3 -cAMP for 5 minutes at 30° C. Activity was quenched by boiling the assay tubes for 1 minute. Each sample was run in triplicate. Analysis of H^3 -cAMP was performed according to the procedure of W. J. Thompson, W. L. Terasaki, P. M. Epstein and S. J. Strada, "Assay of Cyclic Nucleotide Phosphodiesterase and Resolution of Multiple Molecular Forms of the Enzyme", Adv. in Cyclic Nucleotide Research, 10, 69-92 (1979).

Solubility in solvents = format: physicochemical; conditions: dmso, organic solvent or mixture; in water, ethanol or methanol and DSMO; read-out: upper limit of solubility
Procedure: The inventive compound favors organic solvents; the upper limit of solubility in water, ethanol or methanol and DSMO is approximately 100 mM. Butanol is also a good solvent, but probably not a very good vehicle.

intraocular pressure = assay: Intraocular pressure in normal rabbits after topical administration; format: in vivo, rabbit
Text: Non-pigmented, normal (non-water-loaded) rabbits received topical administration to their eyes of 2'-0-(4)-benzoyl benzoyl guanosine 3',5'cyclic monophosphate as prepared according to Example 1.
The mean baseline IOP (intraocular pressure) for the rabbits was 17.5 mm Hg. It should be noted that the data presented in FIG. 1 and FIG. 2 are relative to time zero and normalized relative to the contralateral eye. The contralateral eye received a DMSO control lacking the inhibitor compound. It is believed that this is the most conservative way to represent the data.
Additionally, five rabbits were administered 2'-0-(4-benzoyl)benzoyl guanosine 3',5'cyclic monophosphate (and DMSO) in a sterile saline solution diluted 10- and 100-fold.
FIG. 1 depicts the results of increasing concentrations of 2'-0-(4-benzoyl)benzoyl guanosine 3',5' cyclic monophosphate on the intraocular pressure of normal rabbits. Pressures (±S.E.M) are relative to pressure at time zero and normalized with respect to that of the contralateral eye. Contralateral eyes received solutions containing (DMSO) vehicle without 2'-0-(4-benzoyl)benzoyl guanosine 3',5'cyclic monophosphate. […] Intraocular pressure was measured by applanation tonometry (using an Alcon Applanation Pneumotonograph) after topical application of proparacaine HCl […].

eye = assay: Ocular tolerability in rabbits after topical administration; format: in vivo, rabbit
cGMP PDE = assay: Inhibition of cGMP phosphodiesterase in rat bladder; format: biochemical; conditions: read-out: IC50, concentration required to cause 50% inhibition of the enzyme
Procedure: (§1) 2'-0-(4-benzoyl)benzoyl guanosine 3',5' cyclic monophosphate was assayed as an inhibitor of the cGMP and cAMP phoosphodiesterases in rat bladder. The inhibition of the two PDEases were assayed as per J. N. Wells, C. E. Baird, Y. J. Wu and J. G. Hardman, Biochem. Biophys. Acta, 384, 430, (1975). Expressed as IC50 's, the concentration required to cause 50% inhibition of the enzynme were as follows: […]

[2] = target: Type III cGMP phosphodiesterase; assay: Lineweaver-Burke analysis of cGMP hydrolysis by toad photoreceptor rod outer segment membranes; format: biochemical
Procedure: FIG. 7 depicts a Lineweaver-Burke analysis of inhibitory effectiveness of 2'-0-(4-benzoyl)benzoyl guanosine 3',5'cyclic monophosphate versus 8-Br-cGMP. The data illustrated are cGMP hydrolysis velocities from toad photoreceptor rod outer segment membranes containing 20 nM Type III cGMP phosphodiesterase in the presence of 100 mM NaCl, 1 mM Tris-HCl, 1 MgCl2,20 μM p[NH]ppG (guanylylimididiphosphate), pH 7.4, and the indicated concentrations of substrate. Open squares indicate control velocities. […] Open circles and open triangles show the effect of 2 μM and 20uM 2'-0-(4-benzoyl)benzoyl guanosine 3',5'cyclic monophosphate respectively (Ki =0.3 μM).

[3] = Storage stability in DMSO; format: physicochemical; conditions: stored at -20° C
Text: No preservative need be added.

cAMP PDE = assay: Inhibition of cAMP phosphodiesterase in rat bladder; format: biochemical; conditions: read-out: IC50, concentration required to cause 50% inhibition of the enzyme
Procedure: as §1

[4] = target: T1, Rod Light-Activated PDEase (Bos taurus, UniProt P11541+P23439)
T1 sequence (P11541 1-859): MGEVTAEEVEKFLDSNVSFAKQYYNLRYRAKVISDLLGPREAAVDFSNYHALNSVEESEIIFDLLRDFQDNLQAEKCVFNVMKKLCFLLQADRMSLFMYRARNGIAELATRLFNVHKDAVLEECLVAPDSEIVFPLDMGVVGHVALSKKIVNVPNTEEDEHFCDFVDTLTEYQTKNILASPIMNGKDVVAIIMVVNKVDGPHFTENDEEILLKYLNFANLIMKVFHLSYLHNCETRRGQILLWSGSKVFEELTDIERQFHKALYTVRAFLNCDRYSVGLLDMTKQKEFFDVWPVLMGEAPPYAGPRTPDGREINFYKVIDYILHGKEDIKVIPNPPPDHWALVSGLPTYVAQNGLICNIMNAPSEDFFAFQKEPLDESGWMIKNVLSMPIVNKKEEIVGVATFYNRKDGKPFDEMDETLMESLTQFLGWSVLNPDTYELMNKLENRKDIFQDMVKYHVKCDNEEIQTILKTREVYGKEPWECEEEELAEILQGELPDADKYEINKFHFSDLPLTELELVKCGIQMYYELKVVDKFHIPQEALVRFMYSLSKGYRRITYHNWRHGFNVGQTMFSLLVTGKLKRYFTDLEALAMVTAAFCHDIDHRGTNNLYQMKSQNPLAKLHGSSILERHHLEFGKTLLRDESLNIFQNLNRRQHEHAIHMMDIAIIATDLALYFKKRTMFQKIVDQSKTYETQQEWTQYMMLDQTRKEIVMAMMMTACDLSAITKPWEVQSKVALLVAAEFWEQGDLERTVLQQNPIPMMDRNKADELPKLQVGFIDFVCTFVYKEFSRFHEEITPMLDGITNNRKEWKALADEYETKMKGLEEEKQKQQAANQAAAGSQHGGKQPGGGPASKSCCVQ
T1 sequence (P23439 1-853): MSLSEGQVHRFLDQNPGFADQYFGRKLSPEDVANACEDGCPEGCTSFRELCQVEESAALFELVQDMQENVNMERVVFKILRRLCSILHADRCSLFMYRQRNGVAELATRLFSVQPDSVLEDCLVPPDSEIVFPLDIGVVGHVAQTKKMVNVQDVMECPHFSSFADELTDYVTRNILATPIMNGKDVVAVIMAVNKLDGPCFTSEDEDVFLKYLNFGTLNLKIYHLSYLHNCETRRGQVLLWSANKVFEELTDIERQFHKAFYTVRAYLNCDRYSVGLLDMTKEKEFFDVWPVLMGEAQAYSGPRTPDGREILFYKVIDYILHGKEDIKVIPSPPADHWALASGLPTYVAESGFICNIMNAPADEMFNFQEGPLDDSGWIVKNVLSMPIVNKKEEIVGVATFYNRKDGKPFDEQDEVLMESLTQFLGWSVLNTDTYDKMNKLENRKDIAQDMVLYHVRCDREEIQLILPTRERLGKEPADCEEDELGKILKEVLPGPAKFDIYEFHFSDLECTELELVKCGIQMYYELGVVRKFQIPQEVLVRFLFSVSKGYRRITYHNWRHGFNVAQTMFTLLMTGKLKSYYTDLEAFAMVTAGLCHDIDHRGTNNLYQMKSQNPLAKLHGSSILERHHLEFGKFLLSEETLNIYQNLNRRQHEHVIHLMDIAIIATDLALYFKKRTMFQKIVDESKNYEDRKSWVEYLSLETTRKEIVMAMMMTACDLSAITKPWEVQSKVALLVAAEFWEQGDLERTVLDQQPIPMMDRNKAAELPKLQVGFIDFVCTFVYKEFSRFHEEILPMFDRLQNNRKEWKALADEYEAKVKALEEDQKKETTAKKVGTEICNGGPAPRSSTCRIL

[5] = 20 nM enzyme, 100 mM NaCl, 20 μM p[NH]ppG, pH 7.4, Ki calculated from slope/Km ratios, read-out: Ki
[6] = footnote a: from Zimmerman et al 1985; read-out: Ki for Inhibition; cited from earlier work
[7] = footnote b: interpolated from Pannbacker et al 1972 and Chader et al 1974; read-out: Ki for Inhibition; cited from earlier work

IC50 [1]: 10 µM
SMILES: Nc1ncnc2c1ncn2[C@@H]1O[C@@H]2COP(=O)(O)O[C@H]2[C@H]1OC(=O)c1ccc(C(=O)c2ccccc2)cc1 [2'-0-(4-benzoyl) benzoyl-adenosine 3',5' cyclic monophosphate]

solubility (Solubility in solvents): ~100 mM
IC50 (cGMP PDE): 0.5 µM
Ki [2, 5]: 0.3 µM
Ki ([2]; Table 1, rod light-activated PDEase, inventive compound, read-out: Ki for Inhibition): 0.3 µM
stability in solution [3]: does not degrade
IC50 (cAMP PDE): 15.8 µM
IC50 [1]: 3 µM
SMILES: Nc1nc2c(ncn2[C@@H]2O[C@@H]3COP(=O)(O)O[C@H]3[C@H]2OC(=O)c2ccc(C(=O)c3ccccc3)cc2)c(=O)[nH]1 [2'-0-(4-benzoyl)benzoylguanosine 3',5'cyclic monophosphate]
effect on IOP (intraocular pressure; 10-fold diluted material (approximately 3 mM), compared with 35 mM in DMSO): about the same effect on IOP
effect on IOP (intraocular pressure; 100-fold diluted compound (approximately 0.3 mM)): essentially no effect
conjunctival hyperemia (eye; compound (and DMSO) diluted ten-fold with saline solution): reduced
change in pupil diameter (eye; either eye, any concentration, topical): No significant change in pupil diameter
conjunctival hyperemia (eye; full concentration (in straight DMSO)): slight conjunctival hyperemia
lid erythema or ciliary injection (eye; topical): no lid erythema or ciliary injection were observed

SMILES: Nc1nc2c(ncn2[C@H]2C[C@@H]3OP(=O)(O)OC[C@H]3O2)c(=O)[nH]1 [2'-Deoxy-cGMP]
Ki [4, 6]: 76 µM

SMILES: Nc1nc2c(ncn2[C@@H]2O[C@@H]3COP(O)(=S)O[C@H]3[C@H]2O)c(=O)[nH]1 (some centres unmarked) [(Rp)-cGMP [S]]
Ki [4, 6]: 90 µM

SMILES: Nc1nc2c(ncn2[C@@H]2O[C@@H]3COP(O)(=S)O[C@H]3[C@H]2O)c(=O)[nH]1 (some centres unmarked) [(Sp)-cGMP [S]]
Ki [4, 6]: 25 µM

Ki [2, 5]: 6 µM
SMILES: Nc1nc(O)c2nc(Br)n([C@@H]3O[C@@H]4COP(=O)(O)O[C@H]4[C@H]3O)c2n1 [Example 8-Br-cGMP, 8-Br-3',5' cyclic guanosine monophosphate, reference compound]
Ki [4, 6]: 48 µM

SMILES: CC(C)Cn1c(=O)n(C)c(=O)c2[nH]cnc21 [Isobutylmethylxanthine]
Ki ([4]; read-out: Ki for Inhibition; footnote b: interpolated from Pannbacker et al 1972 and Chader et al 1974; cited from earlier work): ~100 µM

SMILES: CCCC(=O)Nc1nc2c(ncn2[C@@H]2O[C@@H]3COP(=O)(O)O[C@H]3[C@H]2O)c(=O)[nH]1 [N^2 -monobutyryl-cGMP]
Ki [4, 6]: 258 µM

SMILES: CCCC(=O)Nc1nc2c(ncn2[C@@H]2O[C@@H]3COP(=O)(O)O[C@H]3[C@H]2OC(=O)CCC)c(=O)[nH]1 [N^2,O^2,-dibutyryl-cGMP]
Ki [4, 6]: 66 µM

SMILES: CCCC(=O)O[C@@H]1[C@@H]2OP(=O)(O)OC[C@H]2O[C@H]1n1cnc2c(=O)[nH]c(N)nc21 [O^2,-monobutyryl-cGMP]
Ki [4, 6]: 18 µM

SMILES: COc1ccc(Cc2nccc3cc(OC)c(OC)cc23)cc1OC [Papaverine]
Ki [4, 7]: ~50 µM

SMILES: Cn1c(=O)c2[nH]cnc2n(C)c1=O [Theophyline]
Ki [4, 7]: ~360 µM

SMILES: Nc1nc2c(ncn2[C@@H]2O[C@@H]3COP(=O)(O)O[C@H]3[C@H]2O)c(=O)[nH]1 [cGMP, 3',5'cyclic guanosine monophosphate]
Km ([4]; substrate cGMP; from Zimmerman et al 1985; read-out: Km (printed in column Ki for Inhibition); cited from earlier work): 0.04 mM
